From patent US12522601B2, “1,3,4-oxadiazole derivative compounds as histone deacetylase 6 inhibitor, and the pharmaceutical composition comprising the same” (CHONG KUN DANG PHARMACEUTICAL CORP., priority 2020, dated 2026) come the findings set out here.

For one assay, the target named is T1, human recombinant HDAC1 (Homo sapiens, UniProt Q13547).
T1 construct: purchased Enzo Life Sciences, Inc. BML-SE456
As to the kind of experiment: In vitro HDAC enzyme activity inhibition assay, HDAC1 (HDAC Fluorimetric Drug Discovery Kit). As to conditions: human recombinant HDAC1, Fluor de Lys-SIRT1 substrate 10 μM, 30° C. for 60 minutes. The assay is classed as biochemical. In short, it runs like this:
(§1)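 Both HDAC1 and HDAC6 (human recombinant, 0.3 μg) tested identically: 10 μM fluorogenic Fluor de Lys-SIRT1 substrate, reaction 60 min at 30° C, developer added for 30 min. IC50 calculated from Ex 360/Em 460 signal over 5-fold serial dilutions.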

The target of a further assay is T2, human recombinant HDAC6 (Homo sapiens, UniProt Q9UBN7).
T2 construct: purchased Calbiochem Inc. 382180
T2 sequence (Q9UBN7 1-1215): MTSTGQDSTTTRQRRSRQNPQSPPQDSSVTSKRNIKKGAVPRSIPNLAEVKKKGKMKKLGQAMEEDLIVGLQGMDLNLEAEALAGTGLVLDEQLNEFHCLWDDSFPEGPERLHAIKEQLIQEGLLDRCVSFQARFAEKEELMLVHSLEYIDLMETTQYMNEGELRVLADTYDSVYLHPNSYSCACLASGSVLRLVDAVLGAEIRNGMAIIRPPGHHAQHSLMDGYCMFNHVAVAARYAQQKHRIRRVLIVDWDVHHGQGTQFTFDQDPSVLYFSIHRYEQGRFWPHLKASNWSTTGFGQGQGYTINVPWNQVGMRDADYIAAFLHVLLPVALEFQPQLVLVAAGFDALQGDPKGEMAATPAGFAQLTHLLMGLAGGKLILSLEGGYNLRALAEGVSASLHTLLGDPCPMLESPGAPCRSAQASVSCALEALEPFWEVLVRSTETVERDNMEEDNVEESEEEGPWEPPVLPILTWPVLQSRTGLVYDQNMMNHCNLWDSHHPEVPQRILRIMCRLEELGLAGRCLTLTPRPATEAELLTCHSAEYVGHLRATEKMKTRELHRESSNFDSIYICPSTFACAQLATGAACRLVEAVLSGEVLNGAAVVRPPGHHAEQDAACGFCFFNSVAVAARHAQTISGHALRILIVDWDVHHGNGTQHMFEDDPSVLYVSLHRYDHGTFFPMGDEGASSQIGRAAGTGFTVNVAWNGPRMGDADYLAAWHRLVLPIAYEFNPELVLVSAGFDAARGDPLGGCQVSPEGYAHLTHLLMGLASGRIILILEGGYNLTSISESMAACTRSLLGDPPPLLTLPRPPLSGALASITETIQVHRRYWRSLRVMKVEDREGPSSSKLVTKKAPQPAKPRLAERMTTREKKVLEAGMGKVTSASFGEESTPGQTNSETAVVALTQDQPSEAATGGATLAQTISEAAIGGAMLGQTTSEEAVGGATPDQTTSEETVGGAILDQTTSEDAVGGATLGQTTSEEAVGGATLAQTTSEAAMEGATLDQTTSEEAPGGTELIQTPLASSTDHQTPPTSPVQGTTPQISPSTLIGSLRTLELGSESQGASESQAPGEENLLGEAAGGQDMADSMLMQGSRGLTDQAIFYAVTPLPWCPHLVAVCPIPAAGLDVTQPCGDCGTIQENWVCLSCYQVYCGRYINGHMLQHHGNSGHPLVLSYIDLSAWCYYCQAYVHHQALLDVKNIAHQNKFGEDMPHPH
As to the kind of experiment: In vitro HDAC enzyme activity inhibition assay, HDAC6 (HDAC Fluorimetric Drug Discovery Kit). The assay is classed as biochemical. As to conditions: for HDAC6 Selectivity (fold): HDAC6 versus HDAC1; for IC50: human recombinant HDAC6, same protocol as the HDAC1 test. In short, it runs like this: as §1

T1 sequence (Q13547 whole entry): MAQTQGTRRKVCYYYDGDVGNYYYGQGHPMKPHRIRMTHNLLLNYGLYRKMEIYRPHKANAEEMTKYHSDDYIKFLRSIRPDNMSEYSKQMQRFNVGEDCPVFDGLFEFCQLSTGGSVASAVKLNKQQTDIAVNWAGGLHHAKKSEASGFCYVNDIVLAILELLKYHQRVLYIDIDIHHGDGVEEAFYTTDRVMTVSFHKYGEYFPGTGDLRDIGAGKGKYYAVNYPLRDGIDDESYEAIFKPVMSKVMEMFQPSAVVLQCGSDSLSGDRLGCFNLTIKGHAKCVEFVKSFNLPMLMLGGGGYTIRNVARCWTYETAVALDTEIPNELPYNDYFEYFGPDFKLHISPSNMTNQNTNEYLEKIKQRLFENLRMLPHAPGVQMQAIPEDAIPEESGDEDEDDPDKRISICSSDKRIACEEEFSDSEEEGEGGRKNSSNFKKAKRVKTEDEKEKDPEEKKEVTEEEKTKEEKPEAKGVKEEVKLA

The IC50 is the concentration that inhibits the measured activity by half. As to `O=C(C1CN(C2COC2)C1)N(Cc1cn2ccc(-c3nnc(C(F)F)o3)cc2n1)c1cccc(F)c1` [Compound 4193, N-((7-(5-(difluoromethyl)-1,3,4-oxadiazol-2-yl)imidazo[1,2-a]pyridin-2-yl)methyl)-N-(3-fluorophenyl)-1-(oxetan-3-yl) azetidine-3-carboxamide], the results for the 50% inhibitory concentration (IC50) on human recombinant HDAC1 and on human recombinant HDAC6 were over 50000 nM and 139 nM, respectively. Further, on human recombinant HDAC6, the “HDAC6 Selectivity (fold)” value came out at 361 fold.
In the same order, the values of `CC(C)N1CCC(C(=O)N(Cc2cn3ccc(-c4nnc(C(F)F)o4)cc3n2)c2ccccc2)CC1` [Compound 4116, N-((7-(5-(difluoromethyl)-1,3,4-oxadiazol-2-yl)imidazo[1,2-a]pyridin-2-yl)methyl)-1-isopropyl-N-phenylpiperidine-4-carboxamide] are over 50000 nM, 314 nM and 159 fold.
For `O=C(C1CCN(C(=O)C(F)(F)F)CC1)N(Cc1cn2ccc(-c3nnc(C(F)F)o3)cc2n1)c1cccc(F)c1` [Compound 4152, N-((7-(5-(difluoromethyl)-1,3,4-oxadiazol-2-yl)imidazo[1,2-a]pyridin-2-yl)methyl)-N-(3-fluorophenyl)-1-(2,2,2-trifluoroacetyl)piperidine-4-carboxamide], in that order: over 50000 nM, 204 nM and 245 fold.
Consider `O=C(C1CCN(c2ccccn2)CC1)N(Cc1cn2ccc(-c3nnc(C(F)F)o3)cc2n1)c1ccccc1` [Compound 4131, N-((7-(5-(difluoromethyl)-1,3,4-oxadiazol-2-yl)imidazo[1,2-a]pyridin-2-yl)methyl)-N-phenyl-1-(pyridin-2-yl)piperidine-4-carboxamide], for which the IC50 at human recombinant HDAC1 was over 50000 nM. For the same compound, on human recombinant HDAC6, the “HDAC6 Selectivity (fold)” value was 91 fold and the IC50 is 547 nM.
For the compound `CC(=O)N1CC(C(=O)N(Cc2cn3ccc(-c4nnc(C(F)F)o4)cc3n2)c2ccccc2)C1` [Compound 4167, 1-acetyl-N-((7-(5-(difluoromethyl)-1,3,4-oxadiazol-2-yl)imidazo[1,2-a]pyridine-2-yl)methyl)-N-phenylazetidine-3-carboxamide], the half-maximal inhibitory concentration (IC50) is over 50000 nM on human recombinant HDAC1 and 447 nM on human recombinant HDAC6. Also, on human recombinant HDAC6, the “HDAC6 Selectivity (fold)” value stood at 112 fold.
For `FC(F)c1nnc(-c2ccn3cc(Cc4ccccc4)nc3c2)o1` [Compound 3009, 2-(2-benzylimidazo[1,2-a]pyridin-7-yl)-5-(difluoromethyl)-1,3,4-oxadiazole], in that order: over 50000 nM, 79.2 nM and 631 fold.
For `CCN1CC(C(=O)N(Cc2cn3ccc(-c4nnc(C(F)F)o4)cc3n2)c2ccccc2)C1` [Compound 4159, N-((7-(5-(difluoromethyl)-1,3,4-oxadiazol-2-yl)imidazo[1,2-a]pyridin-2-yl)methyl)-1-ethyl-N-phenylazetidine-3-carboxamide], in that order: over 50000 nM, 425 nM and 118 fold.
In the same order, the values of `O=C(C1CCN(C2CC3(CCC3)C2)CC1)N(Cc1cn2ccc(-c3nnc(C(F)F)o3)cc2n1)c1cccc(F)c1` [Compound 4618, N-((7-(5-(difluoromethyl)-1,3,4-oxadiazol-2-yl)imidazo[1,2-a]pyridin-2-yl)methyl)-N-(3-fluorophenyl)-1-(spiro[3.3]heptan-2-yl)piperidine-4-carboxamide] are over 50000 nM, 162 nM and 308 fold.
`O=C(N1CCN(C2CCC(F)(F)CC2)CC1)N(Cc1cn2ccc(-c3nnc(C(F)F)o3)cc2n1)c1cccc(F)c1` [Compound 4091, 4-(4,4-difluorocyclohexyl)-N-((7-(5-(difluoromethyl)-1,3,4-oxadiazol-2-yl)imidazo[1,2-a]pyridin-2-yl)methyl)-N-(3-fluorophenyl)piperazine-1-carboxamide]: the IC50 on human recombinant HDAC1 was over 50000 nM. For the same compound, on human recombinant HDAC6, the “HDAC6 Selectivity (fold)” value was found to be 194 fold and the concentration for half-maximal inhibition (IC50) turned out to be 257 nM.
For `O=C(C1COC1)N1CCN(C(=O)N(Cc2cn3ccc(-c4nnc(C(F)F)o4)cc3n2)c2cccc(F)c2)CC1` [Compound 4103, N-((7-(5-(difluoromethyl)-1,3,4-oxadiazol-2-yl)imidazo[1,2-a]pyridin-2-yl)methyl)-N-(3-fluorophenyl)-4-(oxetan-3-carbonyl)piperazine-1-carboxamide], in that order: over 50000 nM, 249 fold and 201 nM.
For `FC(F)c1nnc(-c2ccn3cc(COc4ccc(C(F)(F)F)cc4)nc3c2)o1` [Compound 3724, 2-(difluoromethyl)-5-(2-((4-(trifluoromethyl)phenoxy)methyl)imidazo[1,2-a]pyridin-7-yl)-1,3,4-oxadiazole], in that order: over 50000 nM, 56 fold and 893 nM.
In the same order, the values of `CC(C)(C)OC(=O)N1CCN(C(=O)N(Cc2cn3ccc(-c4nnc(C(F)(F)F)o4)cc3n2)c2cccc(F)c2)CC1` [Compound 6892, tert-butyl 4-((3-fluorophenyl) ((7-(5-(trifluoromethyl)-1,3,4-oxadiazol-2-yl)imidazo[1,2-a]pyridine-2-yl)methyl)carbamoyl)piperazine-1-carboxylate] are over 50000 nM, 21.2 fold and 2360 nM.
Regarding `CS(=O)(=O)N1CC(C(=O)N(Cc2cn3ccc(-c4nnc(C(F)F)o4)cc3n2)c2ccccc2)C1` [Compound 4173, N-((7-(5-(difluoromethyl)-1,3,4-oxadiazol-2-yl)imidazo[1,2-a]pyridin-2-yl)methyl)-1-(methylsulfonyl)-N-phenylazetidine-3-carboxamide], at human recombinant HDAC1, the IC50 is over 50000 nM. Moreover, on human recombinant HDAC6, the “HDAC6 Selectivity (fold)” value turned out to be 160 fold and the IC50 is 312 nM.
For `O=C(N1CCN(c2ncccn2)CC1)N(Cc1cn2ccc(-c3nnc(C(F)F)o3)cc2n1)c1ccccc1` [Compound 4049, N-((7-(5-(difluoromethyl)-1,3,4-oxadiazol-2-yl)imidazo[1,2-a]pyridin-2-yl)methyl)-N-phenyl-4-(pyrimidin-2-yl)piperazine-1-carboxamide], in that order: over 50000 nM, 539 fold and 92.8 nM.
For `O=C(C1COC1)N1CC(C(=O)N(Cc2cn3ccc(-c4nnc(C(F)F)o4)cc3n2)c2cccc(F)c2)C1` [Compound 4201, N-((7-(5-(difluoromethyl)-1,3,4-oxadiazol-2-yl)imidazo[1,2-a]pyridin-2-yl)methyl)-N-(3-fluorophenyl)-1-(oxetane-3-carbonyl) azetidine-3-carboxamide], in that order: over 50000 nM, 177 fold and 283 nM.
For `Cc1cccc(NCc2cn3ccc(-c4nnc(C(F)F)o4)cc3n2)c1` [Compound 3679, N-((7-(5-(difluoromethyl)-1,3,4-oxadiazol-2-yl)imidazo[1,2-a]pyridin-2-yl)methyl)-3-methylaniline], in that order: over 50000 nM, 341 fold and 147 nM.
As for `CC(=O)c1cccc(NCc2cn3ccc(-c4nnc(C(F)F)o4)cc3n2)c1` [Compound 3669], the IC50 on human recombinant HDAC1 is over 50000 nM. Besides, on human recombinant HDAC6, the “HDAC6 Selectivity (fold)” value is 426 fold and the IC50 worked out at 117 nM.
For `O=C(C1CCN(c2ncccn2)CC1)N(Cc1cn2ccc(-c3nnc(C(F)F)o3)cc2n1)c1cccc(F)c1` [Compound 4157, N-((7-(5-(difluoromethyl)-1,3,4-oxadiazol-2-yl)imidazo[1,2-a]pyridin-2-yl)methyl)-N-(3-fluorophenyl)-1-(pyrimidin-2-yl)piperidine-4-carboxamide], in that order: over 50000 nM, 306 fold and 163 nM.
